Test results published in PMC7170383 (Pharmaceutical Biology, 2020).

How the values were obtained:
CYP1A2 = biological target: T1, CYP1A2 (Homo sapiens, UniProt P05177); experiment: CYP1A2 inhibition in pooled human liver microsomes (phenacetin O-deethylation); assay type: in vitro ADME; conditions: CEP 100 μM, pooled HLMs
T1 construct: from tissue; host or cells: pooled human liver microsomes
T1 sequence (P05177 1-516): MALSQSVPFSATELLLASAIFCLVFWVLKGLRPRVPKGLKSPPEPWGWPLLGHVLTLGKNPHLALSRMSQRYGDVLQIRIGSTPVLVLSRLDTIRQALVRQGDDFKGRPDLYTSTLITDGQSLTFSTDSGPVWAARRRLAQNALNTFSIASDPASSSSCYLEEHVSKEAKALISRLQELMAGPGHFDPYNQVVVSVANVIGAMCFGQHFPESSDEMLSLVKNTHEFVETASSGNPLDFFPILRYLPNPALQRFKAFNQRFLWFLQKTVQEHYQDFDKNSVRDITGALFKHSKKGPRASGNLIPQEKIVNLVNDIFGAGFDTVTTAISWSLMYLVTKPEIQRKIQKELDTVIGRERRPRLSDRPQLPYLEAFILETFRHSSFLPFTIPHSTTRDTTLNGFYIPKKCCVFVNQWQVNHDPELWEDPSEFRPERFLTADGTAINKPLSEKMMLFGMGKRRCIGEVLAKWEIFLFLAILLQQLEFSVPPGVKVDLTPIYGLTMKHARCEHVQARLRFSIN
Experimental: (§1) Marker reactions of eight CYP isoforms were examined, and apparent Km values were estimated to characterize the pooled HLMs. All incubations were performed in triplicate, and the mean values were utilized. The typical incubation systems contained 100 mM potassium phosphate buffer (pH 7.4), NADPH generating system (1 mM NADP^+, 10 mM glucose-6-phosphate, 1 U/mL of glucose-6-phosphate dehydrogenase and 4 mM MgCl2), the appropriate concentration of HLMs, a corresponding probe substrate and hispidulin (or positive inhibitor for different probe reactions) in a final volume of 200 μL.
(§2) There was a 3-min preincubation period (at 37 °C) before the reaction was initiated by adding an NADPH-generating system. The reaction was terminated by adding a 100 μL acetonitrile (10% trichloroacetic acid for CYP2A6) internal standard mix, and the solution was placed on ice. The mixture was centrifuged at 12,000 rpm for 10 min, and an aliquot (50 μL) of supernatant was transferred for HPLC analysis. The instrument used in this study was Agilent 1260 series instrument with DAD and FLD detector, and the quantitative assay for the corresponding metabolites was performed as previously reported (Lang et al. [2016]; Zhang et al. [2017]). The quantitative analysis of metabolites can represent the activity of corresponding CYPs.

CYP2C9 [1] = biological target: T2, CYP2C9 (Homo sapiens, UniProt P11712); experiment: Time-dependent inhibition of CYP2C9 in human liver microsomes; assay type: in vitro ADME; conditions: CEP 20 μM, pre-incubation with HLM 30 min, incubation 0–30 min
T2 construct: from tissue; host or cells: pooled human liver microsomes
Experimental: (§3) After incubation, an aliquot (20 μL) was transferred to another incubation tube (final volume 200 μL) containing an NADPH-generating system and probe substrates whose final concentrations were approximate to Km. Then, further incubations were performed to measure the residual activity. After being incubated for 0, 5, 10, 15, and 30 min, the reactions were terminated by adding a 100 μL acetonitrile internal standard mix and then placed on ice; the corresponding metabolites were determined by HPLC.

CYP2C19 = biological target: T3, CYP2C19 (Homo sapiens, UniProt P33261); experiment: CYP2C19 inhibition in pooled human liver microsomes (S-mephenytoin 4-hydroxylation); assay type: in vitro ADME; conditions: CEP 100 μM, pooled HLMs
T3 construct: from tissue; host or cells: pooled human liver microsomes
Experimental: as §1, §2

CYP2E1 [2] = biological target: T4, CYP2E1 (Homo sapiens, UniProt P05181); experiment: Time-dependent inhibition of CYP2E1 in human liver microsomes; assay type: in vitro ADME; conditions: CEP 20 μM, pre-incubation with HLM 30 min, incubation 0–30 min
T4 construct: CYP2E1 catalysed reactions (chlorzoxazone 6-hydroxylation) in pooled HLM; from tissue; host or cells: pooled human liver microsomes
Experimental: as §3

CYP2A6 = biological target: T5, CYP2A6 (Homo sapiens, UniProt P11509); experiment: CYP2A6 inhibition in pooled human liver microsomes (coumarin 7-hydroxylation); assay type: in vitro ADME; conditions: CEP 100 μM, pooled HLMs
T5 construct: from tissue; host or cells: pooled human liver microsomes
T5 sequence (P11509 1-494): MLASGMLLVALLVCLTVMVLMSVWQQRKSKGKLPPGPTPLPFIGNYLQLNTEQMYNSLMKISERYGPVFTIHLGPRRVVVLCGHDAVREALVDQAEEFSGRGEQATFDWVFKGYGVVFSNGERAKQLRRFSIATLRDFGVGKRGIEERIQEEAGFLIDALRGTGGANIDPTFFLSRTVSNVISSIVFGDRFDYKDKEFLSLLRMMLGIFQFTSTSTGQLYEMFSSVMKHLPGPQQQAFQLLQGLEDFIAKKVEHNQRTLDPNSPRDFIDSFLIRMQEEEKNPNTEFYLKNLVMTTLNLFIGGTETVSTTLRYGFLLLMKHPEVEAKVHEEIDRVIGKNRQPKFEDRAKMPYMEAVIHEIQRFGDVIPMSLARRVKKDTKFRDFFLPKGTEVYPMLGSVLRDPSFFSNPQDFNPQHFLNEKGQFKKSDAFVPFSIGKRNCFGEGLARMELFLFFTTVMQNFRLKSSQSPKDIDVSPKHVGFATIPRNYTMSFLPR
Experimental: as §1, §2

CYP2C8 = biological target: T6, CYP2C8 (Homo sapiens, UniProt P10632); experiment: CYP2C8 inhibition in pooled human liver microsomes (paclitaxel 6α-hydroxylation); assay type: in vitro ADME; conditions: CEP 100 μM, pooled HLMs
T6 construct: from tissue; host or cells: pooled human liver microsomes
T6 sequence (P10632 1-490): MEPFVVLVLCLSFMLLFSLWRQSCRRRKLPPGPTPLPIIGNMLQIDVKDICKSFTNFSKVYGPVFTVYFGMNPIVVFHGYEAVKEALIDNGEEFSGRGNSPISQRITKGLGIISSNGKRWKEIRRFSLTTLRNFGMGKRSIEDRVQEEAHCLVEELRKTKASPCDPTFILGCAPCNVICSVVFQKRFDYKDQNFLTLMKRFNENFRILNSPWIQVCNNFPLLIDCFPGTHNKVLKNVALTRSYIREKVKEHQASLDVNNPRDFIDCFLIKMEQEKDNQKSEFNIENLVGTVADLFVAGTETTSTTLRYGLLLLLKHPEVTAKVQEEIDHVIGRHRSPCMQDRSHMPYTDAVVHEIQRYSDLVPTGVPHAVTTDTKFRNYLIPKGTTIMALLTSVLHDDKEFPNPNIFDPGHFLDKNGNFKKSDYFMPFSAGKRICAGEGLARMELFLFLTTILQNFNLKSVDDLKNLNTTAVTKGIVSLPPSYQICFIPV
Experimental: as §1, §2

CYP3A4 [3] = biological target: T7, CYP3A4 (Homo sapiens, UniProt P08684); experiment: CYP3A4 inhibition in pooled human liver microsomes (testosterone 6β-hydroxylation); assay type: in vitro ADME
T7 construct: CYP3A4 catalysed reactions (testosterone 6β-hydroxylation) in pooled HLM; from tissue; host or cells: pooled human liver microsomes
Experimental: All incubations were performed in triplicate, and the mean values were utilized.
The reaction was terminated by adding a 100 μL acetonitrile (10% trichloroacetic acid for CYP2A6) internal standard mix, and the solution was placed on ice. The mixture was centrifuged at 12,000 rpm for 10 min, and an aliquot (50 μL) of supernatant was transferred for HPLC analysis.
The enzyme kinetic parameters for the probe reaction were estimated from the best fit line, using least-squares linear regression of the inverse substrate concentration versus the inverse velocity (Lineweaver-Burk plots), and the mean values were used to calculate Vmax and Km. […] The mechanism of the inhibition was inspected using the Lineweaver–Burk plots and the enzyme inhibition models.

[4] = set-up: method as in Jiang et al. [2016]; conditions: rats, orally administered CEP 10 mg/kg; ref Jiang et al. [2016]; cited from earlier work
CYP2E1 [5] = biological target: T4, CYP2E1; experiment: CYP2E1 inhibition in pooled human liver microsomes (chlorzoxazone 6-hydroxylation); assay type: in vitro ADME
Experimental: as §1, §2
(§4) The enzyme kinetic parameters for the probe reaction were estimated from the best fit line, using least-squares linear regression of the inverse substrate concentration versus the inverse velocity (Lineweaver-Burk plots), and the mean values were used to calculate Vmax and Km. Inhibition data from the experiments that were conducted using multiple compound concentrations were represented by Dixon plots, and inhibition constant (Ki) values were calculated using non-linear regression according to the following equation: v=(VmaxS/Km(1+I/Ki)+S) where I is the concentration of the compound, Ki is the inhibition constant, S is the concentration of the substrate, and Km is the substrate concentration at half the maximum velocity (Vmax) of the reaction. The mechanism of the inhibition was inspected using the Lineweaver–Burk plots and the enzyme inhibition models. The data comparison was performed using Student’s t-test and performed using IBM SPSS statistics version 20 (IBM SPSS Inc., Armonk, NY).

CYP2D6 = biological target: T8, CYP2D6 (Homo sapiens, UniProt P10635); experiment: CYP2D6 inhibition in pooled human liver microsomes (dextromethorphan O-demethylation); assay type: in vitro ADME; conditions: CEP 100 μM, pooled HLMs
T8 construct: from tissue; host or cells: pooled human liver microsomes
Experimental: as §1, §2

CYP3A4 [6] = biological target: T7, CYP3A4; experiment: Time-dependent inhibition of CYP3A4 in human liver microsomes; assay type: in vitro ADME
Experimental: as §3

CYP2C9 [7] = biological target: T2, CYP2C9; experiment: CYP2C9 inhibition in pooled human liver microsomes (diclofenac 4′-hydroxylation); assay type: in vitro ADME
Experimental: as §1, §2, §4

T2 sequence (P11712 whole entry): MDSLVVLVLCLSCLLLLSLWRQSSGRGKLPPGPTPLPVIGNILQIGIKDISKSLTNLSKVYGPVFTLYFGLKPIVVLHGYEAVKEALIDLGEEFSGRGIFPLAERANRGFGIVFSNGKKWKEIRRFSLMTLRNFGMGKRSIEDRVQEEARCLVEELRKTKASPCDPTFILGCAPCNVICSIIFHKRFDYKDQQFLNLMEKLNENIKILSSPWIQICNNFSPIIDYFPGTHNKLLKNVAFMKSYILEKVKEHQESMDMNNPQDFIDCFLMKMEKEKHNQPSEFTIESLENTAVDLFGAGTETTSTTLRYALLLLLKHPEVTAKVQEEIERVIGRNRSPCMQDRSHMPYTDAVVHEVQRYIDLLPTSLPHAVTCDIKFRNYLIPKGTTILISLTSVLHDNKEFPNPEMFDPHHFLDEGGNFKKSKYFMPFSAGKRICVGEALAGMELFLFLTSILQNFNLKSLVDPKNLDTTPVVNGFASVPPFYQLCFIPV
T7 sequence (P08684 whole entry): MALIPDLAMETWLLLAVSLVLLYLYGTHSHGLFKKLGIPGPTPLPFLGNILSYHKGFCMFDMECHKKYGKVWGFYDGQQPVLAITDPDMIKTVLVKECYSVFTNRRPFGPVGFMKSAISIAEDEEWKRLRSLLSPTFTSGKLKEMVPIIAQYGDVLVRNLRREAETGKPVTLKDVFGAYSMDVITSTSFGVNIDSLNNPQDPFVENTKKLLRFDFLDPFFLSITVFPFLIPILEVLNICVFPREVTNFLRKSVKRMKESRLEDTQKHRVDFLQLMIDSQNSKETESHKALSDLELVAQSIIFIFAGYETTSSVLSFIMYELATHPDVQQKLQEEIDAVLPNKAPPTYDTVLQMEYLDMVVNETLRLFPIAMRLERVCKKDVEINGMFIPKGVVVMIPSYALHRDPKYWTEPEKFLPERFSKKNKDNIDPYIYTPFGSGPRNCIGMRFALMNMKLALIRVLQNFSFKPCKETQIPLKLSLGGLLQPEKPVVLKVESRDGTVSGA
T4 sequence (P05181 whole entry): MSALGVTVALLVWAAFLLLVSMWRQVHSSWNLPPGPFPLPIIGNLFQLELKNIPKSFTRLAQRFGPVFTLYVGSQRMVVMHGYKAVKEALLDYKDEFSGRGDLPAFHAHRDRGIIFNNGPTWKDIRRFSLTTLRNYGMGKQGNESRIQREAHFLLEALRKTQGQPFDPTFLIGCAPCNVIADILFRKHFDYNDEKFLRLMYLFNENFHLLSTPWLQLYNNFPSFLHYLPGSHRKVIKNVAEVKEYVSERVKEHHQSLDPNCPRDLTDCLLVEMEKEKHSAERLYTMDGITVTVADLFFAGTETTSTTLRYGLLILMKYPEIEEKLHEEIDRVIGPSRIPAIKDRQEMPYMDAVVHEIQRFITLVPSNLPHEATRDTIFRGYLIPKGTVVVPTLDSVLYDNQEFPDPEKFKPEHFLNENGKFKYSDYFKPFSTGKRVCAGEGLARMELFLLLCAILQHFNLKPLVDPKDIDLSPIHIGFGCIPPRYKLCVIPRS
T3 sequence (P33261 whole entry): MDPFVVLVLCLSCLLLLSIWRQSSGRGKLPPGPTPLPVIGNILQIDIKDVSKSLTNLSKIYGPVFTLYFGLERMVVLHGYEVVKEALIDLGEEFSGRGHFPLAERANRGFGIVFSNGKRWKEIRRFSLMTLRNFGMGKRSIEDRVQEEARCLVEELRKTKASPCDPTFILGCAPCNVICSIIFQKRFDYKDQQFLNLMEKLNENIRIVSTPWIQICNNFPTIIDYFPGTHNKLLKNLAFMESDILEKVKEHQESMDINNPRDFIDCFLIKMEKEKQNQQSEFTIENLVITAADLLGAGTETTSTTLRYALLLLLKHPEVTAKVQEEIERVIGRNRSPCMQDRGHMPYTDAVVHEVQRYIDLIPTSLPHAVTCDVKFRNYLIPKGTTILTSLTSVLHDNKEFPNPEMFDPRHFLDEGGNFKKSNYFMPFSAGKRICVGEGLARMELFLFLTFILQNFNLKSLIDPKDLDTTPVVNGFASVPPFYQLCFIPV
T8 sequence (P10635 whole entry): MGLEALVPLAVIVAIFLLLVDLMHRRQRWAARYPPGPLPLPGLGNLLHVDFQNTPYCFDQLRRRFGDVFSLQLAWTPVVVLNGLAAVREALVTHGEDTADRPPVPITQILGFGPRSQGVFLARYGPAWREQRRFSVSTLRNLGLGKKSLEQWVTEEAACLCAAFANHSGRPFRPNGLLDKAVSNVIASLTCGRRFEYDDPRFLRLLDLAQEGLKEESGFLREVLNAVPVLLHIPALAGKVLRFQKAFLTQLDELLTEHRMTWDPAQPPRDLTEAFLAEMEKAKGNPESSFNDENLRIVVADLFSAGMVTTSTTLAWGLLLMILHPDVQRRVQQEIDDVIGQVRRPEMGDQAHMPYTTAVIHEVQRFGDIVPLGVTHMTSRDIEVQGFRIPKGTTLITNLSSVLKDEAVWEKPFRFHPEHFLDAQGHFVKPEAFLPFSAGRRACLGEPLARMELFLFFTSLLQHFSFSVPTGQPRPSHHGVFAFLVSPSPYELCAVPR

COc1ccc2cc1Oc1ccc(cc1)C[C@H]1c3c(cc4c(c3Oc3cc5c(cc3OC)CCN(C)[C@@H]5C2)OCO4)CCN1C [CEP, Cepharanthine]
Effect on CYP1A2 activity (CYP1A2): not affected
Time-dependent change of CYP2C9 activity (CYP2C9 [1]): not affected
Effect on CYP2C19 activity (CYP2C19): not affected
Time-dependent change of CYP2E1 activity (CYP2E1 [2]): not affected
Effect on CYP2A6 activity (CYP2A6): not affected
Effect on CYP2C8 activity (CYP2C8): not affected
activity at 100 μM (CYP3A4 [3]; human, pooled human liver microsomes, pH 7.4, probe testosterone (6β-hydroxylation), read-out: CYP3A4 activity, % of control activity): 12.6%
Inhibition manner on CYP3A4 (Lineweaver–Burk plots) (CYP3A4 [3]; pooled HLMs): non-competitive
plasma Cmax [4]: approximately 0.05 μg/mL
Ki (CYP2E1 [5]): 11.8 µM
activity at 100 μM (CYP2E1 [5]; human, pooled human liver microsomes, pH 7.4, probe chlorzoxazone (6-hydroxylation), read-out: CYP2E1 activity, % of control activity): 23.6%
Inhibition manner on CYP2E1 (Lineweaver–Burk plots) (CYP2E1 [5]; pooled HLMs): competitive
IC50 (CYP2E1 [5]; pooled HLMs, chlorzoxazone 6-hydroxylation): 25.6 µM
Effect on CYP2D6 activity (CYP2D6): not affected
Time-dependent change of CYP3A4 activity (CYP3A4 [6]; CEP 20 μM, pre-incubation with HLM 30 min, incubation 0–30 min): decreased with the incubation time
CYP3A4 inactivated each minute at a saturating concentration of CEP (CYP3A4 [6]; HLM, from Kinact): about 5.8%
Ki (CYP2C9 [7]): 13.1 µM
activity at 100 μM (CYP2C9 [7]; human, pooled human liver microsomes, pH 7.4, probe diclofenac (4′-hydroxylation), read-out: CYP2C9 activity, % of control activity): 18.1%
Inhibition manner on CYP2C9 (Lineweaver–Burk plots) (CYP2C9 [7]; pooled HLMs): competitive
IC50 (CYP2C9 [7]; pooled HLMs, diclofenac 4′-hydroxylation): 24.6 µM
